Results: ChEMBL document CHEMBL1201862, “PubChem BioAssay data set” (2004)
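Growth conditions: 96-well plates. Treatment: test compound, 48 hours, 5 concentrations. Analysis: linear interpolation between bracketing concentrations; unreached endpoints set to highest concentration. Here, GI50 denotes the concentration required for 50% inhibition of growth.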 Active and inactive are the calls of the source. Rule as the data show it: active = GI50 up to about 1.1 µM and inactive = higher.

How the values were obtained:
Assay in all cases: DTP human tumour cell line panel, 48 h
786-0 = test system: 786-0
A549 = test system: A549
BT-549 = test system: BT-549
COLO 205 = test system: COLO 205
DU-145 = test system: DU-145
HCC 2998 = test system: HCC 2998
HL-60 = test system: HL-60
KM12 = test system: KM12
LOX IMVI = test system: LOX IMVI
MCF7 = test system: MCF7
NCI-H226 = test system: NCI-H226
NCI-H23 = test system: NCI-H23
NCI/ADR-RES = test system: NCI/ADR-RES
SF-295 = test system: SF-295
TK-10 = test system: TK-10
UACC-257 = test system: UACC-257
UACC-62 = test system: UACC-62
SNB-75 = test system: SNB-75
T47D = test system: T47D

SMILES	GI50 (786-0)	GI50 (A549)	GI50 (BT-549)	GI50 (COLO 205)	GI50 (DU-145)	GI50 (HCC 2998)	GI50 (HL-60)	GI50 (KM12)	GI50 (LOX IMVI)	GI50 (MCF7)	GI50 (NCI-H226)	GI50 (NCI-H23)	GI50 (NCI/ADR-RES)	GI50 (SF-295)	GI50 (TK-10)	GI50 (UACC-257)	GI50 (UACC-62)	GI50 (SNB-75)	GI50 (T47D)
COC(=O)Cc1c([C@H]2[C@H](CC(=O)OC)c3ccccc3N2S(=O)(=O)c2ccc(C)cc2)[nH]c2ccccc12	> 100 µM (inactive)	> 100 µM (inactive)	> 100 µM (inactive)	> 100 µM (inactive)	> 100 µM (inactive)	> 100 µM (inactive)	> 100 µM (inactive)	> 56.9 µM (inactive)	> 100 µM (inactive)	> 100 µM (inactive)	> 100 µM (inactive)	> 100 µM (inactive)	> 100 µM (inactive)	> 100 µM (inactive)	> 100 µM (inactive)	> 100 µM (inactive)	> 100 µM (inactive)		
CCCCN1CCC(O)(c2cc(C(=O)O)[nH]c2-c2cc(C)no2)C1=O (stereo unspecified)	> 100 µM (inactive)	> 100 µM (inactive)	> 100 µM (inactive)	> 100 µM (inactive)	> 100 µM (inactive)	> 100 µM (inactive)		> 100 µM (inactive)		> 100 µM (inactive)		> 100 µM (inactive)	> 100 µM (inactive)	> 100 µM (inactive)	> 100 µM (inactive)	> 100 µM (inactive)	> 100 µM (inactive)	49.9 µM (inactive)	
CC(=O)CC(O)(C(F)(F)Cl)C(F)(F)Cl	> 10 µM (inactive)	> 10 µM (inactive)		> 10 µM (inactive)	> 10 µM (inactive)	> 10 µM (inactive)	> 10 µM (inactive)	> 10 µM (inactive)	> 10 µM (inactive)	> 10 µM (inactive)	> 10 µM (inactive)	> 10 µM (inactive)	> 10 µM (inactive)	> 10 µM (inactive)	> 10 µM (inactive)	> 10 µM (inactive)	> 10 µM (inactive)	> 10 µM (inactive)	> 10 µM (inactive)
O=C1c2ccccc2-c2nc(-c3cccnc3)cc3c2c1nc1ccccc13	> 100 µM (inactive)	> 100 µM (inactive)	> 100 µM (inactive)	> 100 µM (inactive)	> 100 µM (inactive)	> 100 µM (inactive)	21.2 µM (inactive)	> 10 µM (inactive)	40.3 µM (inactive)	> 100 µM (inactive)	> 100 µM (inactive)	88.3 µM (inactive)	> 100 µM (inactive)	58.3 µM (inactive)	> 100 µM (inactive)	> 100 µM (inactive)	32.7 µM (inactive)	> 100 µM (inactive)	
CC1CCCOc2ccc(cc2)/C=N\c2ccc(cc2)CCc2ccc(cc2)/N=C\c2ccc(cc2)OCCC1	> 100 µM (inactive)	> 100 µM (inactive)	> 100 µM (inactive)	> 100 µM (inactive)	> 100 µM (inactive)	> 100 µM (inactive)		> 100 µM (inactive)	> 100 µM (inactive)	> 100 µM (inactive)	> 100 µM (inactive)	> 100 µM (inactive)	> 100 µM (inactive)	> 100 µM (inactive)	> 100 µM (inactive)	> 100 µM (inactive)	> 100 µM (inactive)	> 100 µM (inactive)	
Cc1ccc(-n2c(C)n[nH]c2=O)cc1	> 100 µM (inactive)	> 100 µM (inactive)	> 100 µM (inactive)	> 100 µM (inactive)	> 100 µM (inactive)	> 100 µM (inactive)		> 100 µM (inactive)	> 100 µM (inactive)	> 100 µM (inactive)		> 100 µM (inactive)	> 100 µM (inactive)	> 100 µM (inactive)	> 100 µM (inactive)	> 100 µM (inactive)	> 100 µM (inactive)	> 100 µM (inactive)	
CC12C=CC(C)(C3C(=O)C4C(C(=O)C31)C1(C)C=CC4(C)[S+]1[O-])[S+]2[O-] (stereo unspecified)	51.2 µM (inactive)	> 100 µM (inactive)	> 100 µM (inactive)	34.9 µM (inactive)	> 100 µM (inactive)	> 100 µM (inactive)		> 100 µM (inactive)	81.5 µM (inactive)		> 100 µM (inactive)	> 100 µM (inactive)	64.7 µM (inactive)	> 100 µM (inactive)	> 100 µM (inactive)	71.9 µM (inactive)	74 µM (inactive)	57.5 µM (inactive)	
CC1(C)N=C(N)N=C(N)N1c1ccc(OCC(=O)Nc2cccc(S(=O)(=O)F)c2)c(Cl)c1	4.9 µM (inactive)	3.52 µM (inactive)		15.9 µM (inactive)	> 25.1 µM (inactive)	19.1 µM (inactive)	3.75 µM (inactive)	17.7 µM (inactive)	4.9 µM (inactive)	6.03 µM (inactive)	1.8 µM (inactive)	4.95 µM (inactive)	59.6 µM (inactive)	10.2 µM (inactive)	7.24 µM (inactive)	2.98 µM (inactive)	0.676 µM (active)	54.7 µM (inactive)	27.2 µM (inactive)
O=c1ccc(-c2ccc(-n3ccnc3)cc2)nn1CCO	> 100 µM (inactive)	> 100 µM (inactive)	> 100 µM (inactive)	> 100 µM (inactive)	> 100 µM (inactive)	> 100 µM (inactive)	> 100 µM (inactive)	> 100 µM (inactive)		89.3 µM (inactive)		> 100 µM (inactive)		> 100 µM (inactive)	> 100 µM (inactive)	> 100 µM (inactive)	> 100 µM (inactive)	39.9 µM (inactive)	
CNc1ccc2c(c1)Cc1ccccc1-2	53 µM (inactive)	22.5 µM (inactive)		38.7 µM (inactive)	31.9 µM (inactive)	30.6 µM (inactive)	20.3 µM (inactive)	36.1 µM (inactive)	50.9 µM (inactive)	44.6 µM (inactive)	78 µM (inactive)	75.2 µM (inactive)	> 100 µM (inactive)	47.2 µM (inactive)	36.6 µM (inactive)	61.1 µM (inactive)	26.8 µM (inactive)	52.6 µM (inactive)	24.1 µM (inactive)
COC(=O)C1=C(C)NC(C)=C(C(=O)OCCCN2CCC(c3ccccc3)(c3ccccc3)CC2)[C@H]1c1cccc([N+](=O)[O-])c1 [NIGULDIPINE]	1.61 µM (inactive)	1.79 µM (inactive)		1.57 µM (inactive)	1.86 µM (inactive)	2.24 µM (inactive)	1.16 µM (inactive)	1.77 µM (inactive)	1.62 µM (inactive)	2.07 µM (inactive)	3.25 µM (inactive)	1.75 µM (inactive)	1.73 µM (inactive)	1.73 µM (inactive)	2.91 µM (inactive)	1.66 µM (inactive)	1.61 µM (inactive)	1.37 µM (inactive)	11.5 µM (inactive)
